Data taken from ChEMBL document CHEMBL3091331, “Aminothiazole-featured pirinixic acid derivatives as dual 5-lipoxygenase and microsomal prostaglandin E2 synthase-1 inhibitors with improved potency and efficiency in vivo” (J Med Chem, 2013).
Calls of active or inactive are those of the source. No cut-off for these calls is given here.

Columns and labels:
[1] = test system: Radical scavenging activity; assay: Antioxidant activity assessed as DPPH radical scavenging activity at 25 to 100 uM after 30 mins; format: functional
[2] = target: T1, Prostaglandin E synthase (Homo sapiens, UniProt O14684); assay: Inhibition of mPGES-1 from human A549 cell microsomal membranes using PGH2 as substrate incubated 15 mins prior to substrate addition measured after 1 min by RP-HPLC analysis
T1 sequence (O14684 whole entry): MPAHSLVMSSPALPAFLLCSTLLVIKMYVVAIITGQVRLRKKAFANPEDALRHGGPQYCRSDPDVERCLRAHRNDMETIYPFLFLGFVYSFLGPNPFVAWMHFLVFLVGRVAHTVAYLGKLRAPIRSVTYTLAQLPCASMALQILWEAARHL

[3] = target: T2, Polyunsaturated fatty acid 5-lipoxygenase (Homo sapiens, UniProt P09917); assay: Inhibition of human recombinant 5-lipoxygenase expressed in Escherichia coli BL21 using arachidonic acid as substrate incubated 5 to 10 mins prior to substrate addition measured after 10 mins by HPLC analysis
T2 sequence (P09917 whole entry): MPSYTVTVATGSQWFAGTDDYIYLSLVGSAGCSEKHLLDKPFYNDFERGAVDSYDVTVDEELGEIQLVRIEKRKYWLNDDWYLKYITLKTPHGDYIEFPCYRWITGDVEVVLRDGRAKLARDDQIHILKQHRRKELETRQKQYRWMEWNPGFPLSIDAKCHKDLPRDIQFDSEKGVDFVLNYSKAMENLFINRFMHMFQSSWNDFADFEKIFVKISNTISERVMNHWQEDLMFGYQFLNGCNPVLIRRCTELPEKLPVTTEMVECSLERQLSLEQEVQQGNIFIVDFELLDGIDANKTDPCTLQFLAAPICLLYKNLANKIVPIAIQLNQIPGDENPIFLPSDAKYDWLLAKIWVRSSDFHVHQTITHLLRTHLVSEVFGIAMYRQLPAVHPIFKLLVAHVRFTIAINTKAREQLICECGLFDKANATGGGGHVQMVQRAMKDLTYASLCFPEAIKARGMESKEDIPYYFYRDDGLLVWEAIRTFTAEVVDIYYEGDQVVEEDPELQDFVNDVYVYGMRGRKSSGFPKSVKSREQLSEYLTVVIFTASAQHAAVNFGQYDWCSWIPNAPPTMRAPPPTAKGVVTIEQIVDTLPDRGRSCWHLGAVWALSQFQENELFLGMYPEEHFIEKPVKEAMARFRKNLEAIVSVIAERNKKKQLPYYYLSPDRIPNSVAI

[4] = target: T2, Polyunsaturated fatty acid 5-lipoxygenase; assay: Inhibition of 5-lipoxygenase in A23187-stimulated human polymorphonuclear leukocytes using arachidonic acid as substrate incubated 15 mins prior to substrate addition measured after 10 mins by HPLC analysis
[5] = target: T3, Polyunsaturated fatty acid 5-lipoxygenase (Homo sapiens) (UniProt P09917); assay: Ratio of IC50 for human recombinant 5-lipoxygenase expressed in Escherichia coli BL21 to IC50 for 5-lipoxygenase in human PMNL cells
T3 sequence (whole entry): T2 sequence (P09917 whole entry)

[6] = target: T4, Prostaglandin E synthase (Homo sapiens) (UniProt O14684); assay: Inhibition of mPGES-1 (unknown origin) assessed as remaining activity at 10 uM; values are per cent of control
T4 sequence (whole entry): T1 sequence (O14684 whole entry)

[7] = Metabolic stability in Sprague-Dawley rat liver microsomes assessed as compound remaining at 10 uM after 60 mins by HPLC analysis; format: ADME; conditions: read-out: Stability
[8] = organism: Homo sapiens; assay: Translocation of 5-lipoxygenase from cytosol into nuclear membrane in A23187-stimulated human polymorphonuclear leukocytes assessed as enzyme product formation at 10 uM incubated for 15 mins prior to A23187-challenge measured after 5 mins by Western blotting analysis; format: functional
[9] = test system: Mus musculus; assay: Reduction of LTC4 formation in CD-1 mouse peritonitis model at 1 mg/kg, ip administered 30 mins prior to zymosan-challenge measured after 30 mins by EIA relative to vehicle-treated control; format: functional; conditions: CD-1, ip, route intraperitoneal
[10] = test system: Mus musculus; assay: Antiinflammatory activity in CD-1 mouse peritonitis model assessed as reduction in neutrophil infiltration at 1 mg/kg, ip administered 30 mins prior to zymosan-challenge measured after 4 hrs by spectrophotometry relative to vehicle-treated control; format: functional; conditions: CD-1, ip, route intraperitoneal
[11] = test system: Mus musculus; assay: Antiinflammatory activity in CD-1 mouse peritonitis model assessed as reduction in myeloperoxidase activity at 1 mg/kg, ip administered 30 mins prior to zymosan-challenge measured after 4 hrs by spectrophotometry relative to vehicle-treated control; format: functional; conditions: CD-1, ip, route intraperitoneal
[12] = test system: Mus musculus; assay: Antiinflammatory activity in CD-1 mouse peritonitis model assessed as reduction in vascular permeability at 1 mg/kg, ip administered 30 mins prior to zymosan-challenge measured after 4 hrs relative to vehicle-treated control; format: functional; conditions: CD-1, ip, route intraperitoneal
[13] = target: T3, Polyunsaturated fatty acid 5-lipoxygenase (Homo sapiens); assay: Inhibition of human recombinant 5-lipoxygenase expressed in Escherichia coli BL21 using arachidonic acid as substrate at 1 uM incubated 5 to 10 mins prior to substrate addition measured after 10 mins by HPLC analysis
[14] = test system: Mus musculus; assay: Reduction of PGE2 biosynthesis in CD-1 mouse peritonitis model at 1 mg/kg, ip administered 30 mins prior to zymosan-challenge measured after 4 hrs by RIA (reference value: 1.46 +/- 0.08 ng/ml); format: functional, organism-based; design: dose 1 mg/kg
[15] = target: T2, Polyunsaturated fatty acid 5-lipoxygenase; assay: Inhibition of 5-lipoxygenase in human polymorphonuclear leukocytes; format: cell-based
[16] = target: T1, Prostaglandin E synthase; assay: Inhibition of mPGES-1 (unknown origin)

Compound | IC50 [2] | IC50 [3] | IC50 [4] | also measured
N[C@@H](CS)C(=O)O |  |  |  | Activity [1]: Active
CCCCCCC(Sc1nc(Cl)cc(Nc2nc(-c3ccc(Cl)cc3Cl)cs2)n1)C(=O)O (stereo not given) | 0.4 µM | 1.1 µM | 0.8 µM | 
CCCCCCC(Sc1nc(Cl)cc(Nc2nc(-c3ccc(C(F)(F)F)cc3)cs2)n1)C(=O)O (stereo not given) | 0.4 µM | 1.2 µM | 0.6 µM | 
CCCCCCC(Sc1nc(Cl)cc(Nc2nc(-c3ccc(OC)cc3)cs2)n1)C(=O)O (stereo not given) | 1.3 µM | 1.8 µM | 0.8 µM | 
CCCCCC[C@@H](Sc1nc(Cl)cc(Nc2nc(-c3ccc4ccccc4c3)cs2)n1)C(=O)O | 0.6 µM | 0.4 µM | 0.4 µM | 
CCCCCCC(Sc1nc(Cl)cc(Nc2nc(-c3ccc(Cl)c(Cl)c3)cs2)n1)C(=O)O (stereo not given) | 0.3 µM | 0.7 µM | 0.4 µM | 
CCC(Sc1nc(Cl)cc(Nc2nc(-c3ccc4ccccc4c3)cs2)n1)C(=O)O (stereo not given) | 1.4 µM | 2 µM | 2.9 µM | 
CCCCCCC(Sc1nc(Cl)cc(Nc2nc(-c3ccccc3)cs2)n1)C(=O)O (stereo not given) | 0.8 µM | 2 µM | 0.6 µM | 
CCCCCCC(Sc1nc(Cl)cc(Nc2nc(-c3ccc(Br)cc3)c(C)s2)n1)C(=O)O (stereo not given) | 1.3 µM | 1.6 µM | 0.2 µM | Ratio IC50 [5]: 8
CCCCCCC(Sc1nc(Cl)cc(Nc2ccc3[nH]c(C(F)(F)F)nc3c2)n1)C(=O)O (stereo not given) |  |  |  | residual activity [6]: 43.4%
CCCCCCC(Sc1nc(Cl)cc(Nc2nc(C34CC5CC(CC(C5)C3)C4)cs2)n1)C(=O)O (stereo not given) | 0.9 µM | 5 µM | 3.3 µM | 
CCCCCCC(Sc1nc(Cl)cc(Nc2nc(-c3ccccc3)c(C)s2)n1)C(=O)O (stereo not given) | 0.7 µM | 1.9 µM | 0.6 µM | remaining at 1 h, 10 µM [7]: 74%
CCCCCCC(Sc1nc(Cl)cc(Nc2nc(-c3ccc(Cl)cc3)cs2)n1)C(=O)O (stereo not given) | 0.7 µM | 0.8 µM | 0.9 µM | 
O=C(O)CSc1nc(Cl)cc(Nc2nc(-c3ccc(Cl)cc3)cs2)n1 | 2.3 µM | > 10 µM | > 10 µM | 
CCCCCCC(Sc1nc(Cl)cc(Nc2nc(-c3cccc4ccccc34)cs2)n1)C(=O)O (stereo not given) | 1.7 µM | 0.7 µM | 0.4 µM | 
CCC(Sc1nc(Cl)cc(Nc2nc(-c3ccc(Cl)cc3)cs2)n1)C(=O)O (stereo not given) | 1.4 µM | 6.6 µM | 3.6 µM | 
CC(C)=CCC[C@]1(C)[C@@H](CC=C(C)C)C[C@]2(CC=C(C)C)C(=O)C(CC=C(C)C)=C(O)[C@@]1(C(=O)C(C)C)C2=O |  |  |  | Activity [8]: Active
CCOc1ccc2ccc(=O)oc2c1 [ETHOXYCOUMARIN] |  |  |  | remaining at 1 h, 10 µM [7]: 31%

Compound | IC50 [2] | IC50 [3] | IC50 [4] | also measured
O=C(O)C(Sc1nc(Cl)cc(Nc2nc(-c3ccc(Cl)cc3)cs2)n1)c1cccc2ccccc12 (stereo not given) | 0.5 µM | 0.7 µM | 0.4 µM | 
CC(C)c1ccc2c(c1)c(SC(C)(C)C)c(CC(C)(C)C(=O)O)n2Cc1ccc(Cl)cc1 |  |  |  | inhibition in vivo at 1 mg/kg [9]: 94%; inhibition in vivo at 1 mg/kg [10]: 34%; inhibition in vivo at 1 mg/kg [11]: 18%; inhibition in vivo at 1 mg/kg [12]: 76%; inhibition [13]: inactive; inhibition [14]: inactive
CCCCCCC(Sc1nc(Cl)cc(Nc2cccc(C)c2C)n1)C(=O)O (stereo not given) |  |  | 3.9 µM | 
CCCCCCC(Sc1nc(Cl)cc(Nc2ccc(-c3ccccc3)cc2)n1)C(=O)O (stereo not given) |  |  |  | IC50 [15]: 0.73 µM
CCCCC(Sc1nc(Cl)cc(Nc2nc(-c3ccc(Cl)cc3)cs2)n1)C(=O)O (stereo not given) | 1.2 µM | 3.8 µM | 0.9 µM | 
CCCCCC[C@H](Sc1nc(Cl)cc(Nc2nc(-c3ccc4ccccc4c3)cs2)n1)C(=O)O | 0.6 µM | 0.3 µM | 0.9 µM | 
CCCCCCC(Sc1nc(Cl)cc(Nc2nc(-c3ccc(C)cc3)cs2)n1)C(=O)O (stereo not given) | 0.7 µM | 3 µM | 0.2 µM | Ratio IC50 [5]: 8
O=C1O[C@H]([C@@H](O)CO)C(O)=C1O |  |  |  | Activity [1]: Active
CCCCCCC(Sc1nc(Cl)cc(Nc2nc(-c3ccccc3)c(CC)s2)n1)C(=O)O (stereo not given) | 1.7 µM | 1.8 µM | 0.7 µM | 
CCCCCCC(Sc1nc(Cl)cc(Nc2nc(-c3ccc(F)cc3F)cs2)n1)C(=O)O (stereo not given) | 1.8 µM | 2.5 µM | 1.5 µM | 
CCCCCCC(Sc1nc(Cl)cc(Nc2cccc(-c3ccccc3)c2)n1)C(=O)O (stereo not given) |  |  |  | IC50 [16]: 4 µM; IC50 [15]: 0.6 µM
CCCCCCC(Sc1nc(Cl)cc(Nc2nc(-c3ccc(-c4ccccc4)cc3)cs2)n1)C(=O)O (stereo not given) | 0.5 µM | 0.6 µM | 0.3 µM | 
CCCCCCC(Sc1nc(Cl)cc(Nc2nc(-c3ccc4c(c3)CCCC4)cs2)n1)C(=O)O (stereo not given) | 0.4 µM | 2.3 µM | 0.4 µM | 
CCCCCCC(Sc1nc(Cl)cc(Nc2nc3c(s2)CCc2cc(OC)ccc2-3)n1)C(=O)O (stereo not given) | 1.9 µM | 1.9 µM | 0.2 µM | Ratio IC50 [5]: 8
CCCCCCC(Sc1nc(Cl)cc(Nc2nc(-c3ccc([N+](=O)[O-])cc3)cs2)n1)C(=O)O (stereo not given) | 5 µM | 1.8 µM | 1.4 µM | 
CCCCCCC(Sc1nc(Cl)cc(Nc2nc(-c3ccc(F)c(F)c3)cs2)n1)C(=O)O (stereo not given) | 1.6 µM | 2.3 µM | 1.5 µM | 
CCCCCCC(Sc1nc(Cl)cc(Nc2nc(-c3ccc(Br)cc3)cs2)n1)C(=O)O (stereo not given) | 0.8 µM | 0.7 µM | 0.3 µM | 
CCCCCCC(Sc1nc(Cl)cc(Nc2nc(-c3ccccc3)c(-c3ccccc3)s2)n1)C(=O)O (stereo not given) | 0.6 µM | 0.7 µM | 0.6 µM | 
